Laboratory results reported in patent publication US20140135310A1, “SULPHONAMIDE DERIVATIVES OF ALICYCLIC AMINES FOR THE TREATMENT OF CENTRAL NERVOUS SYSTEM DISEASES” (Adamed Sp. z o.o., priority 2011, published 2014).

Columns and labels:
[1] = target: T1, serotonin transporter (SERT) (Homo sapiens, UniProt P31645); assay: Radioligand binding assay, serotonin transporter (SERT); settings: for inhibition at 1 µM: binding assay, test compound 1×10^−6 M; for Ki: read-out: Inhibition constants Ki for SERT, SERT
T1 construct: expressed in transfected cells; host or cells: CHO cells
T1 sequence (P31645 whole entry): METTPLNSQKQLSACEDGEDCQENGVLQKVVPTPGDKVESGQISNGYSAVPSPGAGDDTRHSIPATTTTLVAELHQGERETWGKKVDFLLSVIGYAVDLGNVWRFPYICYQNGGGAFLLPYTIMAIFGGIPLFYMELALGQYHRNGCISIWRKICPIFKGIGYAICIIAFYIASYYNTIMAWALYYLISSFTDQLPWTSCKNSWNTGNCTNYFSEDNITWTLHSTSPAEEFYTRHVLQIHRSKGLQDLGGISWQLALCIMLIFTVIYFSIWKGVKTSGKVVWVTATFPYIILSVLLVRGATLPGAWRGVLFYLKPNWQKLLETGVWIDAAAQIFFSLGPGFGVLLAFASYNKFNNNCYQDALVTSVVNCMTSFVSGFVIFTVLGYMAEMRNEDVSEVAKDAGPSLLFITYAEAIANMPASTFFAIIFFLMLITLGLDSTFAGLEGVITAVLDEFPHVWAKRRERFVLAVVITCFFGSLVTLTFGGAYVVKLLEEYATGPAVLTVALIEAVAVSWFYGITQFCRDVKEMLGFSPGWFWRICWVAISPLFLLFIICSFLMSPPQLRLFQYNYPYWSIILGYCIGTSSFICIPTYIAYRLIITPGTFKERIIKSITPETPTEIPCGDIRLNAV
In short: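 Radioligand competition binding with scintillation detection; specific binding is total minus binding under excess unlabelled ligand. Reported as % of control specific binding or % inhibition; IC50 from Hill-equation non-linear regression of competition curves, and Ki via Cheng-Prusoff using radioligand concentration and Scatchard-derived KD.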

[2] = target: dopaminergic receptors D2 (Homo sapiens, UniProt P14416); assay: Radioligand binding assay, dopaminergic D2 receptors; settings: for inhibition at 1 µM: binding assay, test compound 1×10^−6 M; for Ki: read-out: Inhibition constants Ki for D2 receptors, D2
Sequence of dopaminergic receptors D2 (P14416 whole entry): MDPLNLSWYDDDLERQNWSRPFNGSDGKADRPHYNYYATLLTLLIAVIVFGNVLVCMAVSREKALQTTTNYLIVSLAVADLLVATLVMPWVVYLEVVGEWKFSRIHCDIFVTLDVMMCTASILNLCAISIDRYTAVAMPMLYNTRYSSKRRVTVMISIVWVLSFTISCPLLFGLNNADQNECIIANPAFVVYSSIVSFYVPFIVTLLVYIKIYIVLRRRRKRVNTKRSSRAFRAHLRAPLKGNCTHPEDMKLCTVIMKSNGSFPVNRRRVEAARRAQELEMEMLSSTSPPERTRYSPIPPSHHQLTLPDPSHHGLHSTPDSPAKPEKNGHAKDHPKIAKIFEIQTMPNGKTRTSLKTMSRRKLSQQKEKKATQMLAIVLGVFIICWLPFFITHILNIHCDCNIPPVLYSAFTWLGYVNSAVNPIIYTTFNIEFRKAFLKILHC
In short: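 Competition radioligand binding at human D2, D3 and D4.4 receptors, detected by scintillation counting; nonspecific binding defined with excess unlabelled ligand. Results as percent inhibition of control specific binding; IC50 by Hill-equation nonlinear regression; Ki via Cheng-Prusoff, with radioligand KD from Scatchard plot.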

α2C adrenergic receptors = target: T2, α2C adrenergic receptors (Homo sapiens, UniProt P18825); assay: Radioligand binding assay, adrenergic α2C receptors; settings: test compound 1×10^−6 M
T2 construct: expressed in transfected cells; host or cells: CHO cells
T2 sequence (P18825 1-462): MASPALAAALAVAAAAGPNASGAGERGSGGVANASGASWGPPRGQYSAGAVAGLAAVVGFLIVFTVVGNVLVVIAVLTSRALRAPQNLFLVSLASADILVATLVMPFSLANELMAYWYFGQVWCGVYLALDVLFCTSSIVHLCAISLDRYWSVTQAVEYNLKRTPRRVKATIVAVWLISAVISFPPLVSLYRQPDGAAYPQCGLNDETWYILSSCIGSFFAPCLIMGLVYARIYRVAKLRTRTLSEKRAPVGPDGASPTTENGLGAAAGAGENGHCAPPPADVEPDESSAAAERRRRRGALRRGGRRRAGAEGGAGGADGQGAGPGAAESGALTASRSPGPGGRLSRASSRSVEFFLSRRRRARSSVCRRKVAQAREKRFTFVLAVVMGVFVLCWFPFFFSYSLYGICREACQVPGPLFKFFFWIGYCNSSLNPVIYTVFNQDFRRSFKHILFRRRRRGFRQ
In short: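 Competitive radioligand binding at human α2C receptors, with scintillation counting. Nonspecific binding defined with excess unlabelled ligand; results given as % inhibition of control specific binding. IC50 from Hill-equation fits of competition curves; Ki via Cheng-Prusoff using radioligand concentration and Scatchard-derived KD.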

5-HT2A receptor = target: T3, 5-HT2A receptor (Homo sapiens, UniProt P28223); assay: Radioligand binding assay, serotoninergic 5-HT2A receptors; settings: for inhibition at 1 µM: binding assay result in %, Table 5a; for Ki: read-out: Inhibition constants Ki, 5-HT2A
T3 construct: purchased PerkinElmer
T3 sequence (P28223 whole entry): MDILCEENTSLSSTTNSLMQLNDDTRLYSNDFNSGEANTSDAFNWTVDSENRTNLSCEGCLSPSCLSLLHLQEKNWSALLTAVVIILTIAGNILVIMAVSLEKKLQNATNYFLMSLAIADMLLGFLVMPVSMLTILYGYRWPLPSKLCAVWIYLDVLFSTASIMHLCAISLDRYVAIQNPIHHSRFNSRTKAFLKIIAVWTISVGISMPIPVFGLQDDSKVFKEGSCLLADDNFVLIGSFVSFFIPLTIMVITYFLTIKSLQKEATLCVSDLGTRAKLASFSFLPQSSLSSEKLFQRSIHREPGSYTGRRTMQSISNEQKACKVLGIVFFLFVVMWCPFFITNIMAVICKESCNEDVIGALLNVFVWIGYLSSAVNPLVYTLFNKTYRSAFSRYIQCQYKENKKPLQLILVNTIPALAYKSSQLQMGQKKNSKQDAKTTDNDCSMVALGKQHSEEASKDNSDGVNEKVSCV
In short: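 Radioligand competition binding with scintillation counting; nonspecific binding defined by excess unlabelled ligand. Data as percent inhibition of control specific binding. IC50 by Hill-equation fit of competition curves; Ki by Cheng-Prusoff, with radioligand Kd from Scatchard plot.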

[3] = tested on: α1 adrenergic receptors (rat cerebral cortex); assay: Radioligand binding assay, adrenergic α1 receptors; settings: test compound 1×10^−6 M
In short: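 Values derive from radioligand displacement, with non-specific binding defined by excess cold ligand and detection by scintillation. Hill-fit IC50s were converted to Ki via Cheng-Prusoff using Scatchard-derived Kd; percent inhibition of control specific binding also reported.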

M3 muscarinic receptors = target: T4, M3 muscarinic receptors (Homo sapiens, UniProt P20309); assay: Radioligand binding assay, muscarinic M3 receptors; settings: test compound 1×10^−6 M
T4 construct: expressed in transfected cells; host or cells: CHO cells
T4 sequence (P20309 whole entry): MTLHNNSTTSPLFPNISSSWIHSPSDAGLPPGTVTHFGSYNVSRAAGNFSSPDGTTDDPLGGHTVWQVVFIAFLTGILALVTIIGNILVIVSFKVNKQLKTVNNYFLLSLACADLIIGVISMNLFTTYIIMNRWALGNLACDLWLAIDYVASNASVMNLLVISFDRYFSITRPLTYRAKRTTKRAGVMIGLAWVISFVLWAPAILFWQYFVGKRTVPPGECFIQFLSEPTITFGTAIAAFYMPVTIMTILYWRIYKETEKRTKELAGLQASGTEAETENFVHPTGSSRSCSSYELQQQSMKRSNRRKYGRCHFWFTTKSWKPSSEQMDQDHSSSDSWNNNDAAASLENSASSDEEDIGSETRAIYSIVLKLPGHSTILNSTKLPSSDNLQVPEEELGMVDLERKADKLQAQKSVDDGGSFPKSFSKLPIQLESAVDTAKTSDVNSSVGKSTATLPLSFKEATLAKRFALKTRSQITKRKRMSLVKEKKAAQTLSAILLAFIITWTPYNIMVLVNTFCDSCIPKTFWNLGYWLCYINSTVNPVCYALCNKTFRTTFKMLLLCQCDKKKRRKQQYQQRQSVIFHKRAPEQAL
In short: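 Radioligand competition binding, detected by scintillation counting; non-specific binding defined with excess unlabelled ligand. Results given as % inhibition of control specific binding; IC50 from Hill-equation fit of competition curves, Ki via Cheng-Prusoff with radioligand KD from Scatchard plot.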

5-HT2C receptor = target: T5, 5-HT2C receptor (Homo sapiens, UniProt P28335); assay: Radioligand binding assay, serotoninergic 5-HT2C receptors; settings: test compound 1×10^−6 M
T5 construct: expressed in transfected cells; host or cells: HEK-293 cells
T5 sequence (P28335 33-458): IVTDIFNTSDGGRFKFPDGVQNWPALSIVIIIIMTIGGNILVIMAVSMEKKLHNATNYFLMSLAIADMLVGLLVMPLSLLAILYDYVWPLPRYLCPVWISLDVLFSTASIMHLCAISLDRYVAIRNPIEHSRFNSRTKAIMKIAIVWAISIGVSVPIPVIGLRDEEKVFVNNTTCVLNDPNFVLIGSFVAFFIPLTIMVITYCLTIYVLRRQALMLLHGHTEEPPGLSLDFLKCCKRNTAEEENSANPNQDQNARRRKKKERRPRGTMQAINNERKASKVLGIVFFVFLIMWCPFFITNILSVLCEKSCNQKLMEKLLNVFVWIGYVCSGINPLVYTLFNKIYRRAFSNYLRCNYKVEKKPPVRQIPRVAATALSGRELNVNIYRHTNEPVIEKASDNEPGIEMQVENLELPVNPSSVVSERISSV

SMILES	inhibition at 1 µM [1] [%]	inhibition at 1 µM [2] [%]	inhibition at 1 µM (α2C adrenergic receptors) [%]	inhibition at 1 µM (5-HT2A receptor) [%]	α1 [%] [3] [%]	inhibition at 1 µM (M3 muscarinic receptors) [%]	inhibition at 1 µM (5-HT2C receptor) [%]	Ki [1] [nM]	Ki [2] [nM]	Ki (5-HT2A receptor) [nM]
CC1(C)Cc2cccc(OCCN3CCC(NS(=O)(=O)c4ccc5ccccc5c4)C3)c2O1 (stereo not drawn) [Compound 108, N-[1-[2-[(2,2-Dimethyl-3H-benzofuran-7-yl)oxy]ethyl]pyrrolidin-3-yl]naphthalene-2-sulphonamide]	36	93	83	98	40	-4	–	–	–	–
O=S(=O)(NCC1CN(CCCc2noc3cc(F)ccc23)C1)c1ccc2scnc2c1 [Compound 132, N-[[1-[3-(6-Fluoro-1,2-benzoxazol-3-yl)propyl]azetidin-3-yl]methyl]-1,3-benzothiazole-5-sulphonamide]	20	82	73	97	86	10	43	–	–	–
O=S(=O)(NC1CCN(CCOc2cccc3ccccc23)C1)c1ccc2ccccc2c1 (stereo not drawn) [Compound 116, N-[1-[2-(1-Naphthyloxy)ethyl]pyrrolidin-3-yl]naphthalene-2-sulphonamide]	95	91	93	96	23	9	–	31	–	–
O=S(=O)(NCC1CN(CCCc2noc3cc(F)ccc23)C1)c1cccc2ccccc12 [Compound 133, N-[[1-[3-(6-Fluoro-1,2-benzoxazol-3-yl)propyl]azetidin-3-yl]methyl]-naphthalene-1-sulphonamide]	42	93	91	95	90	17	47	–	–	–
Cc1c(S(=O)(=O)NCC2CN(CCCc3noc4cc(F)ccc34)C2)sc2ccc(Cl)cc12 [Compound 131, 5-Chloro-N-[[1-[3-(6-fluoro-1,2-benzoxazol-3-yl)propyl]azetidin-3-yl]-methyl]-3-methyl-benzothiophene-2-sulphonamide]	55	97	92	99	70	17	88	–	19	5.5
CC1(C)Cc2cccc(OCCN3CCC(NS(=O)(=O)c4cccc(O)c4)C3)c2O1 (stereo not drawn) [Compound 107, N-[1-[2-[(2,2-Dimethyl-3H-benzofuran-7-yl)oxy]ethyl]pyrrolidin-3-yl]-3-hydroxybenzenesulphonamide]	-4	89	77	97	28	8	86	–	–	–
O=S(=O)(NCC1CCN(CCOc2cccc3ccccc23)C1)c1ccc2ccccc2c1 (stereo not drawn) [Compound 124, N-[[1-[2-(1-Naphthyloxy)ethyl]pyrrolidin-3-yl]methyl]naphthalene-2-sulphonamide]	100	94	95	87	33	49	80	–	–	–
Cc1c(S(=O)(=O)NCC2CN(CCCc3noc4cc(F)ccc34)C2)sc2ccc(F)cc12 [Compound 130, 5-Fluoro-N-[[1-[3-(6-fluoro-1,2-benzoxazol-3-yl)propyl]azetidin-3-yl]methyl]-3-methyl-benzothiophene-2-sulphonamide]	64	97	88	100	86	15	89	–	10	4.2
O=S(=O)(NCC1CN(CCCc2noc3cc(F)ccc23)C1)c1ccc2ccccc2c1 [Compound 134, N-[[1-[3-(6-Fluoro-1,2-benzoxazol-3-yl)propyl]azetidin-3-yl]methyl]-naphthalene-2-sulphonamide]	47	96	87	99	61	34	87	–	–	–
Cc1cccc(S(=O)(=O)NC2CCN(CCCc3c[nH]c4ccc(Cl)cc34)C2)c1 (stereo not drawn) [Compound 86, N-[1-[3-(5-chloro-1H-indol-3-yl)propyl]pyrrolidin-3-yl]-3-methyl-benzenesulphonamide]	105	93	106	97	50	1	–	1.1	–	–
O=S(=O)(NCC1CN(CCOc2cccc3ccccc23)C1)c1ccc2ccccc2c1 [Compound 122, N-[[1-[2-(1-Naphthyloxy)ethyl]azetidin-3-yl]methyl]naphthalene-2-sulphonamide]	98	99	101	83	53	30	98	17	–	–
